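Grown in 96-well plates, cells were treated for 48 hours with each compound at five concentrations. Insufficient inhibition: endpoint recorded as highest concentration tested. At the TGI there is no net growth.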
How the values were obtained:
Experiment in all cases: NCI tumour cell line growth inhibition, 48 h
HOP-62 NSCLC = system: HOP-62 NSCLC
UO-31 renal = system: UO-31 renal
OVCAR-5 ovarian = system: OVCAR-5 ovarian
NCI-H522 lung = system: NCI-H522 lung
MALME-3M melanoma = system: MALME-3M melanoma
KM12 colon = system: KM12 colon
MOLT-4 leukemia = system: MOLT-4 leukemia
HL-60(TB) leukemia = system: HL-60(TB) leukemia
NCI-H460 lung = system: NCI-H460 lung
UACC-257 melanoma = system: UACC-257 melanoma
M19-MEL melanoma = system: M19-MEL melanoma
RXF 393 renal = system: RXF 393 renal
SK-MEL-5 melanoma = system: SK-MEL-5 melanoma
SW-620 colon = system: SW-620 colon
SF-268 CNS = system: SF-268 CNS
SF-295 CNS = system: SF-295 CNS
SK-MEL-28 melanoma = system: SK-MEL-28 melanoma
HS 578T breast = system: HS 578T breast
MDA-N = system: MDA-N
T-47D breast = system: T-47D breast

Measured: TGI

CC1=NS(=O)(=O)c2ccccc2N1
not listed: HS 578T breast | MDA-N | T-47D breast
> 100 µM: all other assays above

Cc1cn(C2CC(O)C(CO)O2)c(=O)[nH]c1=O (configuration not stated)
> 4900 µM: MALME-3M melanoma
4090 µM: MOLT-4 leukemia
> 4240 µM: NCI-H522 lung
4630 µM: HOP-62 NSCLC
> 5000 µM: all other assays above

CSc1nsc(-c2ccccc2)[s+]1
not listed: OVCAR-5 ovarian | SF-295 CNS | HS 578T breast | MDA-N | T-47D breast
> 100 µM: all other assays above

CS(=O)c1ncc2c(n1)-c1ccccc1OC2 (configuration not stated)
not listed: M19-MEL melanoma
> 100 µM: all other assays above

CCCSCC(P(=O)(O)O)P(=O)(O)O
not listed: HS 578T breast | MDA-N | T-47D breast
> 100 µM: all other assays above

CCC1(CC)C(=O)NN(C(=O)c2ccccc2)C1=O
not listed: M19-MEL melanoma
> 100 µM: all other assays above

Reference: PubChem BioAssay (NCI)
